# Data: US10035778B2, “Meta-azacyclic amino benzoic acid derivatives as pan integrin antagonists” (Saint Louis University, priority 2015, dated 2018)
# Legend:
# Format in all cases: binding
# [1] = biological target: Recombinant human integrin α5β1 (Homo sapiens (Human), UniProt P05556+P08648); assay: Solid Phase Receptor Assay (SPRA) for α5β1 function; conditions: fibronectin-coated plate
# Protocol: 1. Solid Phase Receptor Assay (SPRA) for α5β1 Function
# Purified human fibronectin (R&D Systems, 1918-FN) diluted to 2 μg/mL in TBS+ buffer (25 mM Tris pH 7.4, 137 mM NaCl, 2.7 mM KCl, 1 mM CaCl2, 1 mM MgCl2, 1 mM MnCl2) was added to wells (50 μL/well) of a 96-well half-well transparent microtiter plate (Greiner 675061) and incubated overnight at 4° C. Wells were washed 3 times with 150 μL TBS+ and 150 μL of blocking buffer (TBS+ with 1% bovine serum albumin, Sigma A7906) were added. The plate was incubated for 1 hr at 37° C. and then washed 3× with TBS+ buffer. Recombinant human integrin α5β1 (R&D Systems, 3230-A5) was diluted to 0.1 μg/mL in TBS+/0.1% bovine serum albumin. Compounds were diluted 1:100 into the integrin solution and then 50 μL added to empty wells of the washed fibronectin-coated plate according to a standard template with each sample repeated in triplicate. After incubation for two hours at room temperature, the plate was washed 3× with 150 μL of TBS+ buffer. To each well, 50 μl of biotinylated anti-α5 antibody (R&D Systems, BAF1864) at 0.5 μg/mL in TBS+/0.1% BSA were added and the plate covered and incubated for 1 hr at room temperature. After washing the plate 3× with 150 μL of TBS+ buffer, 50 μL of streptavidin-conjugated horseradish peroxidase (R&D Systems, DY998) diluted in TBS+ blocking buffer were added to the wells and the plate incubated for 20 min at room temperature. The plate was washed 3× with TBS+ buffer followed by 50 μL of room temperature TMB substrate (Sigma, T444) added to each well and the plate incubated for 20 min at room temperature. Plates were read by colorimetric detection at 650 nm wavelength using a Tecan Safire II plate reader. Concentration-response curves were constructed by non-linear regression (best fit) analysis, and IC50 values were calculated for each compound.
# [2] = biological target: Recombinant human integrin α8β1 (Homo sapiens (Human), UniProt P05556+P53708); assay: Solid Phase Receptor Assay (SPRA) for α8β1 function; conditions: mouse nephronectin-coated plate
# Protocol: 7. Solid Phase Receptor Assay (SPRA) for α8β1 Function
# Recombinant mouse nephronectin protein (R&D Systems, Inc, 4298-NP) diluted to 1 μg/mL in TBS+ buffer (25 mM Tris pH 7.4, 137 mM NaCl, 2.7 mM KCl, 1 mM CaCl2, 1 mM MgCl2, 1 mM MnCl2) was added to wells (50 μl/well) of a 96-well half-well transparent microtiter plate (Greiner 675061), and incubated overnight at 4° C. Wells were washed 3 times with 150 μL TBS+ and 150 μL of blocking buffer (TBS+ with 1% bovine serum albumin, Sigma A7906) were added. The plate was incubated for 1 hr at 37° C. and then washed 3× with TBS+. Recombinant human integrin α8β1 (R&D Systems, pre-launch) was diluted to 0.25 μg/mL in TBS+/0.1% bovine serum albumin. Compounds were diluted 1:100 into the integrin solution and 50 μL added to empty wells of the washed nephronectin-coated plate according to a standard template with each sample repeated in triplicate. After incubation for two hours at room temperature, the plate was washed 3× with 150 μL of TBS+. To each well, 50 μL of biotinylated anti-β antibody (R&D Systems, BAF1778) at 0.5 μg/mL in TBS+/0.1% BSA were added and the plate was covered and incubated for 1 hr at room temperature. After washing the plate 3× with 150 μL of TBS+ buffer, 50 μL of streptavidin-conjugated horseradish peroxidase (R&D Systems, DY998) diluted in TBS+ blocking buffer were added to the wells and the plate incubated for 20 min at room temperature. The plate was washed 3× with TBS+ followed by 50 μL of TMB substrate (Sigma T4444) added to each well and the plate incubated for 20 min at room temperature. Plates were read by colorimetric detection at 650 nm wavelength using a Tecan Safire II plate reader. Concentration-response curves were constructed by non-linear regression (best fit) analysis, and IC50 values were calculated for each compound.
# [3] = biological target: Recombinant human integrin αvβ5 (Homo sapiens (Human), UniProt P06756+P18084); assay: Solid Phase Receptor Assay (SPRA) for αvβ5 function; conditions: vitronectin-coated plate
# Protocol: 4. Solid Phase Receptor Assay (SPRA) for αvβ5 Function
# Recombinant human vitronectin (R&D Systems, 2308-VN) at 0.25 μg/mL in TBS+ buffer (25 mM Tris pH 7.4, 137 mM NaCl, 2.7 mM KCl, 1 mM CaCl2, 1 mM MgCl2, 1 mM MnCl2) was added to wells (50 μL/well) of a 96-well half-well transparent microtiter plate (Greiner 675061) and incubated overnight at 4° C. Wells were washed 3 times with 150 μL TBS+ and 150 μL of blocking buffer (TBS+ with 1% bovine serum albumin, Sigma A7906) were added. The plate was incubated for 1 hr at 37° C. and then washed 3× with TBS+ buffer. Recombinant human integrin αvβ5 (R&D Systems, 2528-AV) was diluted to 0.1 μg/mL in TBS+/0.1% bovine serum albumin. Compounds were diluted 1:100 into the integrin solution and then 50 μL added to empty wells of the washed vitronectin-coated plate according to a standard template with each sample repeated in triplicate. After incubation for two hours at room temperature, the plate was washed 3× with 150 μL of TBS+ buffer. To each well, 50 μl of biotinylated anti-αv antibody (R&D Systems, BAF1219) at 0.5 μg/mL in TBS+/0.1% BSA at 0.5 μg/mL were added and the plate covered and incubated for 1 hr at room temperature. After washing the plate 3× with 150 μL of TBS+ buffer, 50 μL of streptavidin-conjugated horseradish peroxidase (R&D Systems DY998) diluted in TBS+ blocking buffer were added to the wells and the plate incubated for 20 min at room temperature. The plate was washed 3× with TBS+ buffer followed by 50 μL of TMB substrate (Sigma T4444) added to each well and the plate incubated for 20 min at room temperature. Plates were read by colorimetric detection at 650 nm wavelength using a Tecan Safire II plate reader. Concentration-response curves were constructed by non-linear regression (best fit) analysis, and IC50 values were calculated for each compound.
# Chain of Recombinant human integrin α8β1 (P53708 39-1012): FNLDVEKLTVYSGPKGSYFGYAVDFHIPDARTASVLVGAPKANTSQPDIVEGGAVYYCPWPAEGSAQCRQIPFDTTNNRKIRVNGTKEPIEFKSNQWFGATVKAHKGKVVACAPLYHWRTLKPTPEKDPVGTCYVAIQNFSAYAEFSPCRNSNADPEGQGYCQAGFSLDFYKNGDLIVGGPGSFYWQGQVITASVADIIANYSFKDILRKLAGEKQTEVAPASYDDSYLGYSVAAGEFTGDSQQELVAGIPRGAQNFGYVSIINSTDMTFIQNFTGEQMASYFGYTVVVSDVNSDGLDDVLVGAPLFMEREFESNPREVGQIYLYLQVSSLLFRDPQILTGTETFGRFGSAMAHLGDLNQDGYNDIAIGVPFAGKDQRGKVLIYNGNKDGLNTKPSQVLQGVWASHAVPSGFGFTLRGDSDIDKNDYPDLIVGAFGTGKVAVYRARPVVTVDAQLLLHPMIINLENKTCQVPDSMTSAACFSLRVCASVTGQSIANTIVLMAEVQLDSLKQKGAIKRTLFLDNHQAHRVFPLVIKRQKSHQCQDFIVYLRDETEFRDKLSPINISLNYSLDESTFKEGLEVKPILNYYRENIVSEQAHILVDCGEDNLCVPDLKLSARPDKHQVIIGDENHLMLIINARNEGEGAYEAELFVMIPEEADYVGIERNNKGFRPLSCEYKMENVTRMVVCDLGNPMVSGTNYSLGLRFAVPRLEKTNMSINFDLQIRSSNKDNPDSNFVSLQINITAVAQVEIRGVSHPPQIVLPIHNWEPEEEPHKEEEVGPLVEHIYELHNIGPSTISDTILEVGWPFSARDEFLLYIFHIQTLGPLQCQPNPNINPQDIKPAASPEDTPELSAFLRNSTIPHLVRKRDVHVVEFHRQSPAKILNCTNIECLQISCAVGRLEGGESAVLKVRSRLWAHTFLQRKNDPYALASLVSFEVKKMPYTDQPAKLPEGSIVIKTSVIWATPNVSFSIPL
# Chain of Recombinant human integrin α8β1 (P05556 21-728): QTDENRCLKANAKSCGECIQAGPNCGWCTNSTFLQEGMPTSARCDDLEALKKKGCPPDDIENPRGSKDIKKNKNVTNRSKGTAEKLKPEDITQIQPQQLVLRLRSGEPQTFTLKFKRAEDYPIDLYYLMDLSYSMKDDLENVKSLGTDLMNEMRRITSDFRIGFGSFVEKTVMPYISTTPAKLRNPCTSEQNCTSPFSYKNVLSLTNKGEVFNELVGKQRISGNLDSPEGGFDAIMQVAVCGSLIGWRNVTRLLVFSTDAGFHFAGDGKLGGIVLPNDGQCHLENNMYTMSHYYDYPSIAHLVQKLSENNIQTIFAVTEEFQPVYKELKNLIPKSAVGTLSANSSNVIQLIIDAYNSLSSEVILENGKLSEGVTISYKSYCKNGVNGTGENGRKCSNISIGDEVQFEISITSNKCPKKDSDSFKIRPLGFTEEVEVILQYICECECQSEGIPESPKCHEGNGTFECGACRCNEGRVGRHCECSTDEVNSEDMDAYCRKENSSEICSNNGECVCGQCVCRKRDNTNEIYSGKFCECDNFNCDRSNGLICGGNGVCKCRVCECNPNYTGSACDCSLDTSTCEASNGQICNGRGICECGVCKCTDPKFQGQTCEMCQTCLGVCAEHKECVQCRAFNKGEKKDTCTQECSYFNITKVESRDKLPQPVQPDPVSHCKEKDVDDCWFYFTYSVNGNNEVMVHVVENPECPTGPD
# Chain of Recombinant human integrin αvβ5 (P06756 31-992): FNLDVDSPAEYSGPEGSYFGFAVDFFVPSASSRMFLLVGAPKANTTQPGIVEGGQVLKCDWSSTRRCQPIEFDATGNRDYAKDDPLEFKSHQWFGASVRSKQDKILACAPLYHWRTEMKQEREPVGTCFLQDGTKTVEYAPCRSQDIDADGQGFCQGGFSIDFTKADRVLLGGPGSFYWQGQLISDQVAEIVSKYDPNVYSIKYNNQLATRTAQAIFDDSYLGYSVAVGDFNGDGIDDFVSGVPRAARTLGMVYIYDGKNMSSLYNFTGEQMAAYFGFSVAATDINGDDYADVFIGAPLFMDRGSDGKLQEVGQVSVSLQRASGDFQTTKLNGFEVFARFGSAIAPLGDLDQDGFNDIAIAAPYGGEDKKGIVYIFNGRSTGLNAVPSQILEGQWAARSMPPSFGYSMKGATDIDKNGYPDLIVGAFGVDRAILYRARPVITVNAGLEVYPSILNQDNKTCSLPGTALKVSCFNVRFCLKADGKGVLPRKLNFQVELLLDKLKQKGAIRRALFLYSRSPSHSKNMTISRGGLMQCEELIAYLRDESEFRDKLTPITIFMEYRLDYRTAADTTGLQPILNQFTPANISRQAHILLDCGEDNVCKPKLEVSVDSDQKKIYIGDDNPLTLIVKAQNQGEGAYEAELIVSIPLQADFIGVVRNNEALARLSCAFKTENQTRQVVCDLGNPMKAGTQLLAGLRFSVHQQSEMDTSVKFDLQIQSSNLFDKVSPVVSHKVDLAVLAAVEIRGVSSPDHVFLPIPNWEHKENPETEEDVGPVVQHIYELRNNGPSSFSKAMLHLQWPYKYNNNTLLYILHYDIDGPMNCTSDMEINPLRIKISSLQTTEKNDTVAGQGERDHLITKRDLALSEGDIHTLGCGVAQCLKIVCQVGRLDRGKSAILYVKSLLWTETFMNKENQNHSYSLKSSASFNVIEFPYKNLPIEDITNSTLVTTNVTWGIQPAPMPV
# Chain of Recombinant human integrin αvβ5 (P18084 24-719): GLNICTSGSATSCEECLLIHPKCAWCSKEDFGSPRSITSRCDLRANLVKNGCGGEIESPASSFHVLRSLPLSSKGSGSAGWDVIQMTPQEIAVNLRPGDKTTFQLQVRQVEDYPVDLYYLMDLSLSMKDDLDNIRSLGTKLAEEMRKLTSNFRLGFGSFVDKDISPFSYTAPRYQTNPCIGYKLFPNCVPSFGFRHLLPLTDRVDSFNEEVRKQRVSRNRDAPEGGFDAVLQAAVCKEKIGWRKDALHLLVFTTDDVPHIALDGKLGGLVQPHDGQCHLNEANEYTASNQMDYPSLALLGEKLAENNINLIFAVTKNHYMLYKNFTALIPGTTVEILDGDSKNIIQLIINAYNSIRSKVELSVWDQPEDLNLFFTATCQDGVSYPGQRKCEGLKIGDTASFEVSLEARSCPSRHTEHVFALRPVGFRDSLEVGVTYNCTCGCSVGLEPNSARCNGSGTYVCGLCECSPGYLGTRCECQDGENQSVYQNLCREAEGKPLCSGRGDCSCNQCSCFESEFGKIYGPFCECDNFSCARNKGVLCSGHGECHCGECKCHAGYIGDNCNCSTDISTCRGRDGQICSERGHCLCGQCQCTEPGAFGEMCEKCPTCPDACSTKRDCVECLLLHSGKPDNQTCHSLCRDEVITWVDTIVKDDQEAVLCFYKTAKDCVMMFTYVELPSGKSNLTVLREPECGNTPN
# Chain of Recombinant human integrin α5β1 (P08648 42-995): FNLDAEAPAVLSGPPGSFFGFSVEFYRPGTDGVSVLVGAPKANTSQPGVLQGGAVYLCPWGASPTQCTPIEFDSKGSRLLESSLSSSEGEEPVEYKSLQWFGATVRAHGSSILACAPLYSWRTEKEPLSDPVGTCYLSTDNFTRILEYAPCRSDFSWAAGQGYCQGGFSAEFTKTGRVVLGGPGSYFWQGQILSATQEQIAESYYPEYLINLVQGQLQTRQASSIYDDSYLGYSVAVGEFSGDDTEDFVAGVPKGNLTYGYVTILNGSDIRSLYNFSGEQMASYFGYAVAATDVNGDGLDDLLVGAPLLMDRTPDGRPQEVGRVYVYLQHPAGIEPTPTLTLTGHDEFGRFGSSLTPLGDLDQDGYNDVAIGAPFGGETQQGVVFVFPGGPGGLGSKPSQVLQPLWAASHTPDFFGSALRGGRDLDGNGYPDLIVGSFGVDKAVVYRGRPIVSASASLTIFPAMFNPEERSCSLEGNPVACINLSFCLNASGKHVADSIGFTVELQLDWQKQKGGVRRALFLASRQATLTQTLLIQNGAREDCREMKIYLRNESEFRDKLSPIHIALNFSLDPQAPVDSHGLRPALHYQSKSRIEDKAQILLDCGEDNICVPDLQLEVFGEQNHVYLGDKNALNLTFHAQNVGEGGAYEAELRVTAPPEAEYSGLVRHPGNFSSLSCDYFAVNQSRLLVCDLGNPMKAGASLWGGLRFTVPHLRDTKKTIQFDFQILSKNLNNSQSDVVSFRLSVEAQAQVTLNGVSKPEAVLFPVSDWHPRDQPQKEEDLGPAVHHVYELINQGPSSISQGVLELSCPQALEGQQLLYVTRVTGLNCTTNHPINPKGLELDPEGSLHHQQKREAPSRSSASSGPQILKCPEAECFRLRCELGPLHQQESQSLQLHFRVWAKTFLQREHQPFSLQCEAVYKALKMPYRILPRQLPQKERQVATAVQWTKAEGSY
# Chain of Recombinant human integrin α5β1 (P05556 21-728): as the sequence (P05556 21-728) above
IC50 [1],IC50 [2],IC50 [3],SMILES
0.7 nM,0.6 nM,0.2 nM,O=C(O)C[C@H](NC(=O)CNC(=O)c1cncc(NC2=NCC(O)CN2)c1)c1cc(Cl)cc(C(F)(F)F)c1 (stereo partly drawn) [Example 7]
1 ± 0.3 nM,1.2 nM,0.3 nM,"O=C(O)C[C@H](NC(=O)CNC(=O)c1cc(O)cc(NC2=NCC(O)CN2)c1)c1cc(Cl)cc(Cl)c1 (stereo partly drawn) [Example 15, (3S)-3-[3,5-dichloro-phenyl)-3-(2-(3-hydroxy-5-((5-hydroxy-1,4,5,6-tetrahydropyrimidin-2-yl)amino)benzamido)acetamido)propanoic acid]"
59 nM,26 nM,25 nM,"O=C(O)CC(NC(=O)CNC(=O)c1cc(O)cc(NC2=NCC(O)CN2)c1)c1cc(Br)cc(Br)c1O (stereo not drawn) [Example C7, reference compound]"
0.5 nM,0.7 nM,0.3 nM,"Cc1cc(Br)cc([C@H](CC(=O)O)NC(=O)CNC(=O)c2cc(O)cc(NC3=NCC(O)CN3)c2)c1 (stereo partly drawn) [Example 11, (3S)-3-[3-bromo-5-methyl-phenyl)-3-(2-(3-hydroxy-5-((5-hydroxy-1,4,5,6-tetrahydropyrimidin-2-yl)amino)benzamido)acetamido)propanoic acid]"
0.5 nM,0.9 nM,0.2 nM,"O=C(O)C[C@H](NC(=O)CNC(=O)c1cc(O)cc(NC2=NCC(O)CN2)c1)c1cc(Cl)cc(C(F)F)c1 (stereo partly drawn) [Example 3, (3S)-3-[3-chloro-5-(difluoromethyl)phenyl)-3-(2-(3-hydroxy-5-((5-hydroxy-1,4,5,6-tetrahydropyrimidin-2-yl)amino)benzamido)acetamido]propanoic acid]"
0.6 nM,0.4 nM,0.1 nM,"O=C(O)C[C@H](NC(=O)CNC(=O)c1cncc(NC2=NCC(O)CN2)c1)c1cc(Br)cc(Br)c1 (stereo partly drawn) [Example 14, (3S)-3-(3,5-dibromophenyl)-3-[[2-[[5-[(5-hydroxy-1,4,5,6-tetrahydropyrimidin-2-yl)amino]pyridine-3-carbonyl]amino]acetyl]amino]propanoic acid]"
16 ± 9 nM,8 ± 2 nM,3 ± 1 nM,"O=C(O)C[C@H](NC(=O)CNC(=O)c1cc(O)cc(NC2=NCC(O)CN2)c1)c1cc(Cl)cc(Br)c1O (stereo partly drawn) [Example C1, reference compound]"
0.7 nM,0.6 nM,0.4 nM,"O=C(O)C[C@H](NC(=O)CNC(=O)c1cc(O)cc(NC2=NCC(O)CN2)c1)c1cc(Br)cc(C(F)F)c1 (stereo partly drawn) [Example 4, (3S)-3-[3-bromo-5-(difluoromethyl)phenyl)-3-(2-(3-hydroxy-5-((5-hydroxy-1,4,5,6-tetrahydropyrimidin-2-yl)amino)benzamido)acetamido]propanoic acid]"
0.6 nM,0.5 nM,0.2 nM,"O=C(O)C[C@H](NC(=O)CNC(=O)c1cc(O)cc(NC2=NCC(O)CN2)c1)c1cc(Cl)cc(Br)c1 (stereo partly drawn) [Example 6, (3S)-3-[3-bromo-5-chloro-phenyl)-3-(2-(3-hydroxy-5-((5-hydroxy-1,4,5,6-tetrahydropyrimidin-2-yl)amino)benzamido)acetamido]propanoic acid]"
0.3 nM,0.5 nM,0.3 nM,"O=C(O)C[C@H](NC(=O)CNC(=O)c1cncc(NC2=NCC(O)CN2)c1)c1cc(Br)cc(C(F)(F)F)c1 (stereo partly drawn) [Example 9, (3S)-3-[3-bromo-5-(trifluoromethyl)phenyl]-3-[[2-[[5-[(5-hydroxy-1,4,5,6-tetrahydropyrimidin-2-yl)amino]pyridine-3-carbonyl]amino]acetyl]amino]propanoic acid]"
8 nM,3 nM,0.4 nM,"O=C(O)C[C@H](NC(=O)CNC(=O)c1cc(O)cc(NC2=NCC(O)CN2)c1)c1ccccc1 (stereo partly drawn) [Example C2, reference compound]"
0.8 nM,0.9 nM,0.5 nM,"O=C(O)C[C@H](NC(=O)CNC(=O)c1cc(O)cc(NC2=NCC(O)CN2)c1)c1cc(Cl)cc(C(F)(F)F)c1 (stereo partly drawn) [Example 5, (3S)-3-[3-chloro-5-(trifluoromethyl)phenyl)-3-(2-(3-hydroxy-5-((5-hydroxy-1,4,5,6-tetrahydropyrimidin-2-yl)amino)benzamido)acetamido]propanoic acid]"
7 ± 4 nM,17 nM,1 nM,"Cc1ccc(O)c(C(CC(=O)O)NC(=O)CNC(=O)c2cc(O)cc(NC3=NCC(O)CN3)c2)c1 (stereo not drawn) [Example C6, reference compound]"
1 ± 0.4 nM,1.1 nM,1 nM,"O=C(O)C[C@H](NC(=O)CNC(=O)c1cc(O)cc(NC2=NCC(O)CN2)c1)c1cc(C(F)(F)F)cc(C(F)(F)F)c1 (stereo partly drawn) [Example 10, (3S)-3-[3,5-bis(trifluoromethyl)phenyl)-3-(2-(3-hydroxy-5-((5-hydroxy-1,4,5,6-tetrahydropyrimidin-2-yl)amino)benzamido)acetamido]propanoic acid]"
38 nM,594 nM,5 nM,"Cc1ccc(O)c(C(CC(=O)O)NC(=O)CNC(=O)c2cccc(NC(=N)N)c2)c1 (stereo not drawn) [Example C8, reference compound]"
18 nM,10 nM,2 nM,"Cc1cc(Cl)cc([C@@H](CC(=O)O)NC(=O)CNC(=O)c2cc(O)cc(NC3=NCC(O)CN3)c2)c1O (stereo partly drawn) [Example C10, reference compound]"
40 nM,14 nM,2 nM,"O=C(O)CC(NC(=O)CNC(=O)c1cc(O)cc(NC2=NCC(O)CN2)c1)c1cc(Cl)cc(Cl)c1O (stereo not drawn) [Example C3, reference compound]"

SMILES,IC50 [1],IC50 [2],IC50 [3]
"O=C(O)C[C@H](NC(=O)CNC(=O)c1cncc(NC2=NCC(O)CN2)c1)c1cc(Cl)cc(Br)c1 (stereo partly drawn) [Example 8, (3S)-3-(3-bromo-5-chloro-phenyl)-3-[[2-[[5-[(5-hydroxy-1,4,5,6-tetrahydropyrimidin-2-yl)amino]pyridine-3-carbonyl]amino]acetyl]amino]propanoic acid]",0.6 nM,0.6 nM,0.1 nM
